Reference: patent US20140088052A1, “CHALCONE DERIVATIVES AS NRF2 ACTIVATORS” (THE JOHNS HOPKINS UNIVERSITY, priority 2011, published 2014)
Like-named read-outs stand apart in the source and are kept apart here.

Tests used:
[1] = system: Nrf2; assay: Expression of Nrf2-regulated genes GCLM and NQO1 by qRT-PCR in Beas-2B cells (screen); assay type: cell-based, human; details: 16 h; for fold induction at 10 µM: Homo sapiens
Method: To investigate the potency of the presently disclosed chalcone derivatives to activate Nrf2, the expression of antioxidant genes, GCLM and NADPH-NQO1, two well characterized transcriptional targets of Nrf2, were measured as surrogate markers. By “marker” is meant any protein or polynucleotide having an alteration in expression level or activity that is associated with a disease, disorder, or condition. It has been previously shown that oxidants or small molecule activators of Nrf2 increase GCLM and NQO1 in cells or tissues of wild-type, but not in Nrf2-deficient mice. Osburn, W. O., et al., Genetic or pharmacologic amplification of Nrf2 signaling inhibits acute inflammatory liver injury in mice. Toxicol. Sci. 2008, 104(1), 218-227. […]
RNA was isolated and gene expression was measured after 16 h.
Total RNA was extracted from cells/tissue using Qiagen RNeasy kit (Qiagen Corporation, Valencia, Calif.) and reverse transcription was performed by using random hexamers and MultiScribe reverse transcriptase according to the manufacturer's recommendations (Applied Biosystems, Foster City, Calif., USA). Quantitative real-time RT-PCR analyses of Nrf2, NQO1, HO1, and GCLM were performed by using Assay-on-Demand primers and probe sets from Applied Biosystems. Assays were performed using the ABI 7000 Taqman system (Applied Biosystems, Foster City, Calif.). β-actin was used for normalization.

[2] = system: Beas-2B cells; assay: Cell viability / cytotoxicity (MTT assay) in Beas-2B cells; assay type: cell-based, human; details: 24 h, DMSO = 100
Method: Concurrent with the gene expression analysis, the cytotoxicity of the chalcone derivatives was determined using the MTT assay.
Mad. Chem. 2007, 15, 2952-2962. […] Four hours before the end of incubation, the medium was removed and 100 μL of MTT (5 mg/mL in serum free medium) was added to each well. The MTT was removed after 4 h, cells were washed with PBS, and 100 μL DMSO was added to each well to dissolve the water-insoluble MTT-formazan crystals. The absorbance was recorded at 570 nm in a plate reader (Molecular Devices, Sunnyvale, Calif.).

[3] = BEAS-2B, DMSO = 1.0 (Table 2), read-out: Relative Fold Change GCLM
[4] = BEAS-2B, DMSO = 1.0 (Table 2), read-out: Relative Fold Change NQO1
[5] = DMSO = 1.0 (Table 2), read-out: Relative Fold Change GCLM
[6] = DMSO = 1.0 (Table 2), read-out: Relative Fold Change NQO1
[7] = BEAS-2B, DMSO = 1 (Table 3), read-out: Relative Fold Change GCLM
[8] = BEAS-2B, DMSO = 1 (Table 3), read-out: Relative Fold Change NQO1

Row | SMILES | fold induction at 10 µM [1, 3] | fold induction at 10 µM [1, 4] | also measured
1 | COc1ccc(C(=O)/C=C/c2ccccc2C(F)(F)F)cc1OC [Compound 2h, (E)-1-(3,4-dimethoxyphenyl)-3-(2-(trifluoromethyl)phenyl)prop-2-en-1-one] | 4.3 | 2.7 | 
2 | COc1ccc(C(=O)/C=C/c2ccccc2)cc1OC [Compound 1h, (E)-3-phenyl-1-(3,4-dimethoxyphenyl)prop-2-en-1-one] |  |  | fold induction at 10 µM [1, 5]: 2.3; fold induction at 10 µM [1, 6]: 2.5
3 | COc1cccc(OC)c1C(=O)/C=C/c1ccc(C(F)(F)F)cc1 [Compound 4f, (E)-1-(2,6-dimethoxyphenyl)-3-(4-(trifluoromethyl)phenyl)prop-2-en-1-one] | 1.4 | 0.6 | 
4 | COc1cc(OC)c(C(=O)/C=C/c2cccc(C(F)(F)F)c2)c(OC)c1 [Compound 3l, (E)-1-(2,4,6-trimethoxyphenyl)-3-(3-(trifluoromethyl)phenyl)prop-2-en-1-one] | 1.4 | 0.7 | 
5 | COc1ccc(C(=O)/C=C/c2ccc(C(F)(F)F)cc2)cc1 [Compound 4d, (E)-1-(4-methoxyphenyl)-3-(4-(trifluoromethyl)phenyl)prop-2-en-1-one] | 3.5 | 4.6 | fold induction at 10 µM [1, 7]: 3.5; fold induction at 10 µM [1, 8]: 4.6; % Cell Viability [2]: 104.1%
6 | COc1ccc(C(=O)/C=C/c2ccc(C(F)(F)F)cc2)c(OC)c1OC [Compound 4j] | 4.1 | 3.9 | fold induction at 10 µM [1, 7]: 4.1; fold induction at 10 µM [1, 8]: 3.7; % Cell Viability [2]: 100.1%
7 | COc1cccc(C(=O)/C=C/c2cccc(C(F)(F)F)c2)c1 [Compound 3c, (E)-1-(3-methoxyphenyl)-3-(3-(trifluoromethyl)phenyl)prop-2-en-1-one] | 4.6 | 3.5 | fold induction at 10 µM [1, 7]: 4.6; fold induction at 10 µM [1, 8]: 3.5; % Cell Viability [2]: 95.3%
8 | COc1ccc(OC)c(C(=O)/C=C/c2cccc(C(F)(F)F)c2)c1 [Compound 3g, (E)-1-(2,5-dimethoxyphenyl)-3-(3-(trifluoromethyl)phenyl)prop-2-en-1-one] | 1.8 | 0.8 | 
9 | COc1cc(OC)c(C(=O)/C=C/c2ccccc2)c(OC)c1 [Compound 1l, (E)-3-phenyl-1-(2,4,6-trimethoxyphenyl)prop-2-en-1-one] | 3.1 | 1.8 | 
10 | O=C(/C=C/c1ccc(C(F)(F)F)cc1)c1ccccc1 [Compound 4a, (E)-1-phenyl-3-(4-(trifluoromethyl)phenyl)prop-2-en-1-one] | 3.31 | 2.9 | 
11 | COc1ccc(C(=O)/C=C/c2ccccc2)c(OC)c1OC [Compound 1k, (E)-3-phenyl-1-(2,3,4.trimethoxyphenyl)prop-2-en-1-one] |  |  | Relative Fold Change GCLM ([1]; 10 μM, DMSO = 1.0 (Table 2)): 2.4; Relative Fold Change NQO1 ([1]; 10 μM, DMSO = 1.0 (Table 2)): 2.4
12 | COc1cccc(OC)c1C(=O)/C=C/c1cccc(C(F)(F)F)c1 [Compound 3f, (E)-1-(2,6-dimethoxyphenyl)-3-(3-(trifluoromethyl)phenyl)prop-2-en-1-one] | 1.8 | 0.6 | 
13 | COc1cc(OC)cc(C(=O)/C=C/c2ccccc2)c1 [Compound 1i, (E)-3-phenyl-1-(3,5-dimethoxyphenyl)prop-2-en-1-one] | 3 | 2.4 | 
14 | COc1cc(C(=O)/C=C/c2ccccc2C(F)(F)F)cc(OC)c1OC [Compound 2j, (E)-1-(3,4,5,S.trimethoxyphenyl)-3-(2-(trifluoromethyl)phenyl)prop-2-en-1-one] | 3 | 3.1 | 
15 | COc1cc(C(=O)/C=C/c2cccc(C(F)(F)F)c2)cc(OC)c1OC [Compound 3j, (E)-1-(3,4,5-trimethoxyphenyl)-3-(3-(trifluoromethyl)phenyl)prop-2-en-1-one] | 1.7 | 0.8 | 
16 | COc1ccc(C(=O)/C=C/c2ccc(C(F)(F)F)cc2)cc1OC [Compound 4h] | 3.5 | 2.7 | 
17 | O=C(/C=C/c1cccc(C(F)(F)F)c1)c1ccccc1 [Compound 3a, (E)-1-phenyl-3-(3-(trifluoromethyl)phenyl)prop-2-en-1-one] | 3.1 | 2.8 | 
18 | COc1cc(C(=O)/C=C/c2ccccc2)cc(OC)c1OC [Compound 1j, (E)-3-phenyl-1-(3,4,5-trimethoxyphenyl)prop-2-en-1-one] | 0.7 | 0.7 | 

Row | SMILES | fold induction at 10 µM [1, 3] | fold induction at 10 µM [1, 4] | also measured
19 | COc1cccc(OC)c1C(=O)/C=C/c1ccccc1 [Compound 1f, (E)-3-phenyl-1-(2,6-dimethoxyphenyl)prop-2-en-1-one] | 2.5 | 1.9 | 
20 | COc1cccc(C(=O)/C=C/c2ccc(C(F)(F)F)cc2)c1 [Compound 4c, (E)-1-(3-methoxyphenyl)-4-(4-(trifluoromethyl)phenyl)prop-2-en-1-one] | 2.9 | 3.1 | 
21 | COc1ccc(C(=O)/C=C/c2cccc(C(F)(F)F)c2)c(OC)c1OC [Compound 3k, (E)-1-(2,3,4-trimethoxyphenyl)-3-(3-(trifluoromethyl)phenyl)prop-2-en-1-one] | 3.6 | 3.2 | 
22 | COc1cccc(C(=O)/C=C/c2ccccc2)c1 [Compound 1c, (E)-1-(3-methoxyphenyl)-3-phenylprop-2-en-1-one] | 1.5 | 2.4 | 
23 | COc1ccc(C(=O)/C=C/c2cccc(C(F)(F)F)c2)c(OC)c1 [Compound 3e, (E)-1-(2,4-dimethoxyphenyl)-3-(3-(trifluoromethyl)phenyl)prop-2-en-1-one] | 4.6 | 4 | 
24 | COc1ccc(OC)c(C(=O)/C=C/c2ccccc2[N+](=O)[O-])c1 [Compound 5g] | 1.7 | 0.7 | 
25 | COc1ccc(C(=O)/C=C/c2ccccc2)cc1 [Compound 1d, (E)-1-(4-methoxyphenyl)-3-phenylprop-2-en-1-one] | 1.9 | 2.8 | 
26 | COc1ccccc1C(=O)/C=C/c1cccc(C(F)(F)F)c1 [Compound 3b, (E)-1-(2-methoxyphenyl)-3-(3-(trifluoromethyl)phenyl)prop-2-en-1-one] | 3.9 | 2.9 | 
27 | COc1ccc(C(=O)/C=C/c2cccc(C(F)(F)F)c2)cc1 [Compound 3d, (E)-1-(4-methoxyphenyl)-3-(3-(trifluoromethyl)phenyl)prop-2-en-1-one] | 2.7 | 2.8 | 
28 | COc1ccccc1C(=O)/C=C/c1ccccc1 [Compound 1b, (E)-1-(2-methoxyphenyl)-3-phenylprop-2-en-1-one] | 3.6 | 3.2 | 
29 | COc1ccc(C(=O)/C=C/c2ccccc2)c(OC)c1 [Compound 1e, (E)-3-phenyl-1-(2,4-dimethoxyphenyl)prop-2-en-1-one] |  |  | fold induction at 10 µM [1, 5]: 2.7; fold induction at 10 µM [1, 6]: 2.8
30 | COc1ccc(OC)c(C(=O)/C=C/c2ccccc2C(F)(F)F)c1 [Compound 2g, (E)-1-(2,5-dimethoxyphenyl)-3-(2-(trifluoromethyl)phenyl)prop-2-en-1-one] | 4.4 | 2.7 | 
31 | COc1ccc(OC)c(C(=O)/C=C/c2ccccc2)c1 [Compound 1g, (E)-3-phenyl-1-(2,5-dimethoxyphenyl)prop-2-en-1-one] | 3 | 2.6 | 
32 | COc1ccc(C(=O)/C=C/c2cccc(C(F)(F)F)c2)cc1OC [Compound 3h, (E)-1-(3,4-dimethoxyphenyl)-3-(3-(trifluoromethyl)phenyl)prop-2-en-1-one] | 4.1 | 2.9 | 
33 | COc1cc(C(=O)/C=C/c2ccc(C(F)(F)F)cc2)cc(OC)c1OC [Compound 4i] | 4.1 | 3.7 | 
34 | COc1ccc(C(=O)/C=C/c2ccccc2[N+](=O)[O-])c(OC)c1OC [Compound 5k, (E)-1-(2,3,4-trimethoxyphenyl)-3-(2-nitrophenyl)prop-2-en-1-one] | 2.9 | 3.3 | 
35 | COc1cc(OC)c(C(=O)/C=C/c2ccc(C(F)(F)F)cc2)c(OC)c1 [Compound 4k] | 2.4 | 2.4 | 
